Test [1] has as its system OVA-induced inflammatory cell recruitment. In words: BAL fluid total and differential inflammatory cell counts, OVA mouse asthma model. The following applies: for total cell count in BAL fluid: 0.1, 0.5 and 1 mg/kg i.p. 2 h before and 10 h after each challenge; for total cell count in BAL fluid / eosinophil count in BAL fluid: BAL fluid 24 hours after last OVA aerosol, vs DMSO control; for eosinophil count in BAL fluid: 0.1, 0.5 and 1 mg/kg i.p.; for OVA-induced inflammatory cell counts in BAL fluid: sensitized mice 24 hours after last OVA aerosol challenge, 0.1, 0.5, 1 mg/kg. Type of test: in vivo, BALB/c mice. On the procedure:
Female BALB/c mice (Interfauna, East Yorkshire, UK), were housed in appropriate cages (maximum 4 mice/cage) at the Animal Holding Unit (AHU), NUS. The temperature and humidity of the housing environment were maintained at approximately 22° C. and 55% respectively. Commercial mouse feed and water were provided ad libitum. The beddings were changed three times a week to ensure cleanliness of the living conditions. The handling of mice and the experiments carried out strictly followed the guidelines approved by the Institutional Animal Care and Use Committee (IACUC) of NUS, Singapore.
All mice were acclimatized for at least one week before sensitization. A sensitization mixture was prepared by dissolving 20 μg of OVA and 4 mg of Al(OH)3 in 0.1 ml of Saline. The murine asthma model was developed by sensitizing the mice with 0.1 ml of sensitization mixture on Day 0 and Day 14 using intraperitoneal (i.p.) injections.
The sensitized mice were subjected to airway challenge to produce both the control model as well as the asthma model. A challenge mix was prepared by dissolving 0.15 g OVA into 15 ml of saline solution. The mice were then challenged with aerosolized 1% OVA for 30 minutes on Day 22, 23, 24 to stimulate asthmatic response. A negative control for the asthma model was developed by performing saline challenge on several mice. In this case, 15 ml of saline was used as the challenge mix.
(§1) Andrographolide or DDAG alone (0.1, 0.5, and 1 mg/kg; Sigma, St. Louis, Mo.) or vehicle (1% dimethyl sulfoxide [DMSO]) in 0.1 ml saline was given by intraperitoneal injections 2 hour before and 10 hours after each OVA aerosol challenge. Andrographolide or 14-deoxy-11,12-didehydroandrographolide (DDA) were prepared from stock. DMSO was used as a solvent to dissolve Andrographolide or DDA. A stock solution of 10 mg/ml was prepared and stored at −20° C. When used, the stock solution was thawed and diluted with Saline solution to form three different drug concentrations: 0.01 mg/ml, 0.05 mg/ml and 0.1 mg/ml.
(§2) Bronchoalveolar lavage (BAL) was conducted on Day 25, 24 hours after the final OVA/saline challenge. Mice were anaesthetized by 0.3 ml i.p. injections of an anesthetic cocktail (ketamine: medetomidine: H2O=3:4:33, Parnell, Alexandria NSW, Australia & Pfizer, Auckland, New Zealand) with 27 G½ sterile needle (PrecisionGlide®). Mice were sacrificed by cervical dislocation 5 minutes after anesthetization. 25 G½ sterile needles (PrecisionGlide®) were used for blood extraction. […] Tracheotomy was then performed and a small transverse incision was made on the exposed trachea. Blunt needles (20 G), which were connected to 1 ml sterile syringes, were inserted into the trachea through this incision and 0.5 ml of ice-cold PBS (4° C.) was instilled thrice into the lungs (0.5 ml×3). About 1.2-1.4 ml of BAL fluid was retrieved from each mouse and was kept in −80° C. for subsequent experiments.
BAL fluid collected from the lungs of the mouse was centrifuged at 3000 rpm for 5 min at 4° C. The supernatant was collected and stored at −80° C. The pellet was resuspended in 200 μl of 0.875% NH4Cl (8.75 mg NH4Cl in 1 ml MilliQ water) and incubated for 5 minutes at room temperature to remove unwanted erythrocytes. The cell suspension was then centrifuged at 3000 rpm for 5 min at 4° C. The supernatant was discarded and the pellet containing inflammatory cells was resuspended in 200 μl of RPMI with 1% BSA (10 mg BSA in 1 ml RPMI). The total number of viable cells was enumerated using a haemocytometer (10 μl of 0.4% trypan blue: 10 μl of cell suspension), under a microscope at 200×magnification.
Following the total cell count, dilutions were performed on the BAL fluid collected with the RPMI/BSA solution (1×10^5 cells per 150 μl of RPMI/BSA). Cytocentrifugation was then carried out on all samples using a Cytospin centrifuge (Thermo Shandon, Pittsburgh, USA) at 600 g for 10 minutes to fix the cells on glass slides. […]

Test [2] has as its system IL-4, IL-5, IL-13, eotaxin and IFN-γ in the BAL fluid. As to the kind of experiment: Cytokine and chemokine levels in BAL fluid (ELISA), OVA mouse asthma model. Format: in vivo, BALB/c mice. The following applies: OVA-challenged mice. The method, then:
as §1, §2
DDAG alone (0.1, 0.5, and 1 mg/kg; Sigma, St. Louis, Mo.) or vehicle (2% dimethyl sulfoxide [DMSO]) in 0.1 ml saline was given by intraperitoneal injections 2 hour before and 10 hours after each OVA aerosol challenge. In the combinational experiments, DDAG (0.1 mg/kg) in combination with Dexamethasone (0.05 mg/kg) was given intraperitoneally. In both experimental setting, saline aerosol was used as a negative control. Animal experiments were performed according to the Institutional guidelines for Animal Care and Use Committee of the National University of Singapore.
Levels of IL-4, 11-5, IL-13, eotaxin and IFN-γ in the BAL fluid were measured (IL-4, IL-5 and IFN-γ from BD Biosciences Pharmingen, San Diego, Calif., USA; IL-13 and eotaxin from R&D Systems, Minneapolis, Minn., USA). The kits were obtained from two different manufacturers and thus the protocols differed in certain steps. In brief, 50 μl of coating capture antibody in respective coating buffers (pH 9.5, 0.1 M sodium carbonate for IL-4, IL-5 and IFN-γ; 1×PBS for IL-13 and eotaxin) was coated to 96-well ELISA plate (NUNC, Denmark). The plate was sealed with parafilm and incubated overnight at respective temperature (4° C. for IL-4, IL-5 and IFN-γ and room temperature for IL-13 and eotaxin). Next day, each well was washed with washing buffer (PBS with 0.05% Tween-20) and blocked with 200 μl blocking buffer (PBS with 10% FBS for IL-4, IL-5 and IFN-γ; 1×PBS with 1% BSA and 5% sucrose for IL-13 and eotaxin) for 2 hours at room temperature. After blocking, 50 μl of standards and BAL fluid samples were loaded into respective wells, and incubated for 2 h at room temperature. Several washings were done to remove unbound molecules. The plate was incubated with biotinylated-detection antibody with HRP for 1 h (BD OptEIA™ Kit) or with biotinylated detection antibody for 1 h followed by HRP for 45 min (R&D Kit). After washing, 50 μl of TMB peroxidase substrate (solution A: solution B=9:1) was added into each well, and incubated for 30 min in dark. Lastly, 50 μl of stopping solution (1 M H2SO4) was added to stop the reaction. The optical density of each well in the plate was read at 450 nm with λ correction at 570 nm. Detection limits of the respective kits are as follow: 4 pg/ml for IL-4 and IL-5; 15.6 pg/ml for IL-13 and IFN-γ; and 2 pg/ml for eotaxin.
(In general: An ELISA detects its analyte on a solid surface through an enzyme-linked reagent.)

[3] abbreviates: 0.1, 0.5, 1 mg/kg i.p., 24 hours after last OVA aerosol, vs DMSO control.
The mark [4] stands for this setting: OVA-challenged mice, high dose 1 mg/kg i.p.

For the compound `C=C1CC[C@@H]2[C@](C)(CO)[C@H](O)CC[C@@]2(C)[C@@H]1C/C=C1/C(=O)OC[C@H]1O` [Andrographolide], in test [1] (OVA-challenged mice), the “total cell count in BAL fluid” value is reported as “inhibited” and the “eosinophil count in BAL fluid” value was “inhibited”. Besides, the “OVA-induced lymphocyte counts in BAL fluid” value in test [1] (OVA-challenged mice, dose not stated) was “inhibited”. For the same compound, in test [1], the “OVA-induced inflammatory cell counts in BAL fluid” value is recorded as “dose-dependently reduced”. Moreover, in test [2] (setting [3]), the “IL-4 level in BAL fluid” value is recorded as “inhibited”, the “IL-5 level in BAL fluid” value was “inhibited”, the “IL-13 level in BAL fluid” value is “inhibited” and the “eotaxin level in BAL fluid” value was “inhibition”.
For the compound `C=C1CCC2C(C)(CO)C(O)CCC2(C)C1C=CC1=CCOC1=O` (stereo not drawn) [DDAG, 14-Deoxy-11,12-didehydroandrographolide], in test [1] (OVA-challenged mice), the “total cell count in BAL fluid” value is recorded as “drastically decreased” and the “eosinophil count in BAL fluid” value was “drastically decreased”. Besides, in test [1] (setting [4]), the “lymphocyte count in BAL fluid” value is listed as “reduced” and the “macrophage count in BAL fluid” value is recorded as “reduced”. Further, in test [1] (low dose given alone), the “anti-inflammatory effects in mouse asthma model” value is listed as “do not show any anti-inflammatory effects”. Also, the “OVA-induced inflammatory cell counts in BAL fluid” value in test [1] is reported as “dose-dependently reduced”. The “IFN-γ level in BAL fluid” value in test [2] (1 mg/kg) is listed as “markedly upregulated”. In test [2] (setting [3]), the “IL-4 level in BAL fluid” value is recorded as “significantly (P<0.05) reduced”, the “IL-5 level in BAL fluid” value was “significantly (P<0.05) reduced” and the “IL-13 level in BAL fluid” value is recorded as “significantly (P<0.05) reduced”.

(Values after US20120015923A1, “USE OF ANDROGRAPHOLIDE COMPOUNDS FOR TREATING INFLAMMATION AND AIRWAY DISORDERS” (NATIONAL UNIVERSITY OF SINGAPORE, priority 2009, published 2012).)
